Biological target: T1, Tg-P450 (Toxoplasma gondii, UniProt S8EQL7)
T1 construct: gene TGME49_315770; P450 knockout as negative control
Experiment: in situ fluorescence microscopy of resorufin formation (rhodamine filter), knockout control
Assay type: cell-based
Settings: 1 uM, 24 h, 37 °C; live tachyzoites in HepG2 cells; strain given as Tg-P450 OE in text, GT1 in figure legend

T1 sequence (S8EQL7 entry or part of it): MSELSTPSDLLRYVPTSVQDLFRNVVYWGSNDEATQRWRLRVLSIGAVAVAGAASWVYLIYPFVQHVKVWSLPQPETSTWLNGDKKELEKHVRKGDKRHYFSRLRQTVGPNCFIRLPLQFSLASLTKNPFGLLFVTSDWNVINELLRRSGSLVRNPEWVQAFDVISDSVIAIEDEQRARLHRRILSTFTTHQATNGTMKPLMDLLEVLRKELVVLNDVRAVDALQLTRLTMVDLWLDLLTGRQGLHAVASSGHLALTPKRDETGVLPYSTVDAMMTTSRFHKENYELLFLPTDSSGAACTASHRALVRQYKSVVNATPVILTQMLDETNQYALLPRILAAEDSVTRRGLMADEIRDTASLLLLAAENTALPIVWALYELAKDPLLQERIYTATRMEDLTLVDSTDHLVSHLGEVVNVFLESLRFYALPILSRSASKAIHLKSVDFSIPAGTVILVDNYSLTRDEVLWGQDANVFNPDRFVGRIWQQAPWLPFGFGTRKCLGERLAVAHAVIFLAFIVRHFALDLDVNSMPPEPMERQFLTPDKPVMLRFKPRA

Q: For `CCCCCOc1ccc2nc3ccc(=O)cc-3oc2c1` [PR, pentoxyresorufin], which “in situ fluorescence microscopy of resorufin formation (rhodamine filter), knock” value is on record?
A: Its value is “a weak specific fluorescence signal was visible in the Tg-P450 OE strain”.

Q: For `O=c1ccc2nc3ccc(OCc4ccccc4)cc3oc-2c1` [BR, benzoxyresorufin], which “in situ fluorescence microscopy of resorufin formation (rhodamine filter), knock” value is on record?
A: The value was “After treating the P450 knockout parasites with PR and BR, no fluorescence was observed”.

Source: PMC5777755, “Functional characterization of a unique cytochrome P450 in Toxoplasma gondii” (Oncotarget, 2017)
